Reference: publication PMC7366380, “Discovery of a Potent and Selective Covalent Inhibitor and Activity-Based Probe for the Deubiquitylating Enzyme UCHL1, with Antifibrotic Activity” (Journal of the American Chemical Society, 2020)
Several values for one entry are separate records, joined by “and”; a condition that tells them apart may be missing. Equal entries are not always repeated.

How the values were obtained:
Test in all cases: Quantitative chemical proteomic profiling of ABP 2 in HEK293 cells: other DUBs and proteins across the proteome
[1] = molecular target: DUBs and other proteins in HEK293 cells (Homo sapiens, UniProt P54578); details: USP14, listed as ABP 2
[2] = molecular target: T1, DUBs and other proteins in HEK293 cells (Homo sapiens, UniProt Q53GS9); details: USP39
T1 sequence (Q53GS9 1-565): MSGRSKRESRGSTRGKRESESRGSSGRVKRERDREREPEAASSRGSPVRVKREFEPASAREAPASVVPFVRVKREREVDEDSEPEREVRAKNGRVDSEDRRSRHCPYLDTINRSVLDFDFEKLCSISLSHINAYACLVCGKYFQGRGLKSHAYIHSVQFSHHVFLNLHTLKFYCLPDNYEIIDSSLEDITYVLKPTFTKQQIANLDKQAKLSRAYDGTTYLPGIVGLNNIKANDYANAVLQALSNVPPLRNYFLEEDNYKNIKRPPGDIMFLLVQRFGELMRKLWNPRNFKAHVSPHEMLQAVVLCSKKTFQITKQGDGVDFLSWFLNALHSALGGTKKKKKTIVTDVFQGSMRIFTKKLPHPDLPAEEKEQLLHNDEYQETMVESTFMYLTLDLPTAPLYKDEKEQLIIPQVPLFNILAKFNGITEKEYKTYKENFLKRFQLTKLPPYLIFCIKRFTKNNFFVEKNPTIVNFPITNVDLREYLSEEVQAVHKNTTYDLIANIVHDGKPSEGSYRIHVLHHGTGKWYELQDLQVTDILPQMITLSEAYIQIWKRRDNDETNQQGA

[3] = molecular target: DUBs and other proteins in HEK293 cells (Homo sapiens, UniProt Q93008); details: USP9X, listed as ABP 2
[4] = molecular target: DUBs and other proteins in HEK293 cells (Homo sapiens, UniProt Q93009); details: USP7, listed as ABP 2
[5] = molecular target: DUBs and other proteins in HEK293 cells (Homo sapiens, UniProt Q96FW1); details: OTUB1, listed as ABP 2
[6] = molecular target: T2, DUBs and other proteins in HEK293 cells (Homo sapiens, UniProt Q9Y4E8); details: USP15, listed as ABP 2
T2 sequence (Q9Y4E8 1-981): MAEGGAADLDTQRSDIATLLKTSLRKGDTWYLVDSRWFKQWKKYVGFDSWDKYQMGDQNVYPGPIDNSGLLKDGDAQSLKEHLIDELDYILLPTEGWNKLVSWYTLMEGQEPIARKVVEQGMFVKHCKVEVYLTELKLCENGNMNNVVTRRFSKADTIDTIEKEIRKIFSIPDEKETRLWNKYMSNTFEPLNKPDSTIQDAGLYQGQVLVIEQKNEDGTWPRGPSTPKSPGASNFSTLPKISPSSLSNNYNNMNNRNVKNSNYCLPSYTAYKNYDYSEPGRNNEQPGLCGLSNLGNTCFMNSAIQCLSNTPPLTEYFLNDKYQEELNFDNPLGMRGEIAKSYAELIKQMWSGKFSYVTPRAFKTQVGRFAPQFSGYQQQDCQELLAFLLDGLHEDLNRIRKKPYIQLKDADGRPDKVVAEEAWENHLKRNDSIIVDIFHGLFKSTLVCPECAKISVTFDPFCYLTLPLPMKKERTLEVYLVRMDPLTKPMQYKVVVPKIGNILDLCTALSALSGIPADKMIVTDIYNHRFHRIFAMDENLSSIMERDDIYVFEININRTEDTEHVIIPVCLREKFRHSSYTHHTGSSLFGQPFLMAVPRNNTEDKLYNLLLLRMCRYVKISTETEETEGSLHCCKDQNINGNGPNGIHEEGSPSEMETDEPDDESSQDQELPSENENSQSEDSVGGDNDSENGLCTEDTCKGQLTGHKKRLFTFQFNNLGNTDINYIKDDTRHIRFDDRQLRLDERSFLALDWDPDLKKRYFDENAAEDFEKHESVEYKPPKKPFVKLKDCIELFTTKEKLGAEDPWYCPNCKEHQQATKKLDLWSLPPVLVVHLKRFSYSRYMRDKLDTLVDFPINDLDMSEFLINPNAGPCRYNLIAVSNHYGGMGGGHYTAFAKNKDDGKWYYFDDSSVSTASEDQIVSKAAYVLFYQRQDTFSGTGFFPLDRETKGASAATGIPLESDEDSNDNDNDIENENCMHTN

[7] = 200 nM, 180 min, replicates A,C

DUBs and other proteins in HEK293 cells (Homo sapiens, UniProt Q96FW1), sequence (Q96FW1 whole entry): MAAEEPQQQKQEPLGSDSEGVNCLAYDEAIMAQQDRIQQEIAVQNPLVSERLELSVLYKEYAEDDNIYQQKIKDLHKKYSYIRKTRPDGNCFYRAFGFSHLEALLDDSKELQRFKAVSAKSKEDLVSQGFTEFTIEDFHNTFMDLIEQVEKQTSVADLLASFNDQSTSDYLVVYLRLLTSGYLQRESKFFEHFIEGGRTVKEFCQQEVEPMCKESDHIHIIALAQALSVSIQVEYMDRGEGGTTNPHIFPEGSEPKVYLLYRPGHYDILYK
DUBs and other proteins in HEK293 cells (Homo sapiens, UniProt Q93008), sequence (Q93008 whole entry): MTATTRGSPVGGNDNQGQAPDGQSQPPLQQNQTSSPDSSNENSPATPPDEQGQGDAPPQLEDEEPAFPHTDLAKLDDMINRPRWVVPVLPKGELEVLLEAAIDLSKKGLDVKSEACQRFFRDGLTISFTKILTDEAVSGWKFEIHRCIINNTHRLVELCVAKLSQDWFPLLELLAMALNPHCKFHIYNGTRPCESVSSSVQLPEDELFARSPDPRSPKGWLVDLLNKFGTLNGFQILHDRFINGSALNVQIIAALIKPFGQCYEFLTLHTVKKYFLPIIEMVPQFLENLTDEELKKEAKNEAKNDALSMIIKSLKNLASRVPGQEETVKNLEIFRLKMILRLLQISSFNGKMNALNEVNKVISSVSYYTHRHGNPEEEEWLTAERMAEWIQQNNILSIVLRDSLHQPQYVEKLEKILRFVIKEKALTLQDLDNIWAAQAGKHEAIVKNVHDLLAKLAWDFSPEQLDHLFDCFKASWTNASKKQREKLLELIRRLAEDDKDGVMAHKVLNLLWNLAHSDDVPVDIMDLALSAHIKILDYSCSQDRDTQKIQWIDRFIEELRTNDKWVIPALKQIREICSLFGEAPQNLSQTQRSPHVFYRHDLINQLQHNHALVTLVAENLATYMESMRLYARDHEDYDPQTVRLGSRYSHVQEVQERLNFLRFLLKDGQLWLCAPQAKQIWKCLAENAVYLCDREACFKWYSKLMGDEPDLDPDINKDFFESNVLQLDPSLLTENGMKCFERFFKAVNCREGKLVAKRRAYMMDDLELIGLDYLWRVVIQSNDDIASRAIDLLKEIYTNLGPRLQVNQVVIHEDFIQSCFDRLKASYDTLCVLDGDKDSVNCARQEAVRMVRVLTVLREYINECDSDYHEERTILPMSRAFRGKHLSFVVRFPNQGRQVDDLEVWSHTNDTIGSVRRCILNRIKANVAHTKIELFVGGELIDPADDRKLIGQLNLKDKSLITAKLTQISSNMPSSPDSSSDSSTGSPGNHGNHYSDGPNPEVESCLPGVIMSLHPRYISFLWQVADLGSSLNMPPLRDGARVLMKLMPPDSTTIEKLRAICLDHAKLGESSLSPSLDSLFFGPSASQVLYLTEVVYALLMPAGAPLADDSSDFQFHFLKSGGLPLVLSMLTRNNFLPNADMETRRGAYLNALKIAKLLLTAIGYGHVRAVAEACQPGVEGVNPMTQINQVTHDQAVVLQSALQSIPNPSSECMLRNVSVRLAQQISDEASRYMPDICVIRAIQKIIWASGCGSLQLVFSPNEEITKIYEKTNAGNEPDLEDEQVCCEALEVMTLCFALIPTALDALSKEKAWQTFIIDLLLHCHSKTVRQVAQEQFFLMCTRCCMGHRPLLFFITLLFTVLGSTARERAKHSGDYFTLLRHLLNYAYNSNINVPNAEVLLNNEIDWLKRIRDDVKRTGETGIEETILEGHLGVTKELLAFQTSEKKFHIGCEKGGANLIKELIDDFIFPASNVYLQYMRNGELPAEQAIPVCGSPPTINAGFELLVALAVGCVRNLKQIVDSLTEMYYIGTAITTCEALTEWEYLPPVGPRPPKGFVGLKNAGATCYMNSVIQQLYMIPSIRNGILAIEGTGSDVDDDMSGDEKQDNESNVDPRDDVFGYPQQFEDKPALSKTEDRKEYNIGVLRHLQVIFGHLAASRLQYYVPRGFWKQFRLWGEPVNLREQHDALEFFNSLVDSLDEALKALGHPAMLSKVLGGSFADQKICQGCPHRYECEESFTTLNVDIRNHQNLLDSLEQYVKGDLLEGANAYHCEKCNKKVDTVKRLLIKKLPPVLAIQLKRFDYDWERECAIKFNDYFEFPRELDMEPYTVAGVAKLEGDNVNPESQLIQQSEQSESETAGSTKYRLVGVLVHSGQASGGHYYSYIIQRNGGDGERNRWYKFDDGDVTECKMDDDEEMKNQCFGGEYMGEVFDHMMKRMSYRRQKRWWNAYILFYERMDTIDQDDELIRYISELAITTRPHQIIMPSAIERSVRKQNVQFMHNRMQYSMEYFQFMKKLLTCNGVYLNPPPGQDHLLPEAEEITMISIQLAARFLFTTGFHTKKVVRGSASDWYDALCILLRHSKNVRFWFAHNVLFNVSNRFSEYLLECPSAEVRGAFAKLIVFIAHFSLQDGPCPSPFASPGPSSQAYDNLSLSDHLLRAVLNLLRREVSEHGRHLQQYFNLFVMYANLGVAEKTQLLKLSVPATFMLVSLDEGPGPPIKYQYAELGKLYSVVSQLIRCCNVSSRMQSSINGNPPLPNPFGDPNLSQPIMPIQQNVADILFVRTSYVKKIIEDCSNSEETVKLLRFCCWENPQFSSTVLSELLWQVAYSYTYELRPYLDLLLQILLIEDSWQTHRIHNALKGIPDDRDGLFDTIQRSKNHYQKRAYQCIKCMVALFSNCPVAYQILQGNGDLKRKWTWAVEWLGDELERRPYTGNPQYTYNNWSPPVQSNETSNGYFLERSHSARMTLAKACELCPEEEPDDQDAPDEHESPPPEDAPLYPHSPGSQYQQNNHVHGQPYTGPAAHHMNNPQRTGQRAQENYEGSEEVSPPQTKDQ
DUBs and other proteins in HEK293 cells (Homo sapiens, UniProt P54578), sequence (P54578 whole entry): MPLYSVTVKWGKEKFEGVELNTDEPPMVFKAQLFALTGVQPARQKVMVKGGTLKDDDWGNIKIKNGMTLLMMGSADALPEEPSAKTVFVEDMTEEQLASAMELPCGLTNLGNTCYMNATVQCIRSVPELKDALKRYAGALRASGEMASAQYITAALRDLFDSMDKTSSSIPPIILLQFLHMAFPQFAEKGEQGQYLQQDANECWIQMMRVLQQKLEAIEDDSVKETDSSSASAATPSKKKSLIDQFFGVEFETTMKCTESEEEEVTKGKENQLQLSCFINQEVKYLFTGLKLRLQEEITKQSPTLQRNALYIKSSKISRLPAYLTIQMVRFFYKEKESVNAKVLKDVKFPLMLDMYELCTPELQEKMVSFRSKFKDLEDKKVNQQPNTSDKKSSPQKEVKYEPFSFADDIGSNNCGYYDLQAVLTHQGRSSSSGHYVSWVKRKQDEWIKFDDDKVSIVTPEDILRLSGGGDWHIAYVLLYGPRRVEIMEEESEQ
DUBs and other proteins in HEK293 cells (Homo sapiens, UniProt Q93009), sequence (Q93009 whole entry): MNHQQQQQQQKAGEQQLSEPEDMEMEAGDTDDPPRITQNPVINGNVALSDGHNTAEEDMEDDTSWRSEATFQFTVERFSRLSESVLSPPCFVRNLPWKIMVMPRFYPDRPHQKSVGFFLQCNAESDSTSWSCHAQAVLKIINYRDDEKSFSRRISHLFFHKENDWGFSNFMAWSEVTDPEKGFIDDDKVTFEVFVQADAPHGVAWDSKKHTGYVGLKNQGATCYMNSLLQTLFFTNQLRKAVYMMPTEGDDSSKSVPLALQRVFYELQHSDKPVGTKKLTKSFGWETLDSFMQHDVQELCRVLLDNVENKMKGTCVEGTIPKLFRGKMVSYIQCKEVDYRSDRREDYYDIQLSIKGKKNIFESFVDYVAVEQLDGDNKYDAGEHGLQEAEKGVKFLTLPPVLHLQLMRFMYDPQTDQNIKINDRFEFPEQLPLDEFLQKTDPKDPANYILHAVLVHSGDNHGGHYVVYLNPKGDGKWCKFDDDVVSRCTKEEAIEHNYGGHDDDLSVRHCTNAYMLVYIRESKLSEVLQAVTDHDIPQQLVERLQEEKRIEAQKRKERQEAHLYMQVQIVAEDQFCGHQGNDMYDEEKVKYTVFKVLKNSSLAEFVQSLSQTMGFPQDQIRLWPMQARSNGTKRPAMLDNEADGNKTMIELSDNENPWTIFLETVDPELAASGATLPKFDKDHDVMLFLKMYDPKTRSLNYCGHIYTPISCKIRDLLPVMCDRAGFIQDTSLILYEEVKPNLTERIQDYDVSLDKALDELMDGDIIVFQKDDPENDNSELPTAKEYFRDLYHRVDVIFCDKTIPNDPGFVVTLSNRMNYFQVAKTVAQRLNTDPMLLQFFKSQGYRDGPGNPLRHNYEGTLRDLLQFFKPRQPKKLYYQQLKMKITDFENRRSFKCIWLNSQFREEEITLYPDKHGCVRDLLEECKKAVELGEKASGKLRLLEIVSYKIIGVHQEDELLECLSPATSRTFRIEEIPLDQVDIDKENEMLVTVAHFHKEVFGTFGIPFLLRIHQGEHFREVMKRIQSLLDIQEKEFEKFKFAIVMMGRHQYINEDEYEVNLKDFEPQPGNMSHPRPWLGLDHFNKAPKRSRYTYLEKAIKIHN

C#Cc1cnc2[nH]cc(-c3cccc4c3CCN4C(=O)[C@@H]3CCCN3C#N)c2c1 [Compound 2]
Log2 reporter intensity values (Log2FC, DMSO substract) ([1]; 2 nM, 60 min, replicates A-C): 0.01071 and 0.05631 and -0.04364 | Log2 reporter intensity values (Log2FC, DMSO substract) ([1]; 20 nM, 10 min, replicates B,C): 0.009394 and 0.07693 | Log2 reporter intensity values (Log2FC, DMSO substract) ([1]; 20 nM, 60 min, replicates A-C): 0.05332 and 0.1025 | Log2 reporter intensity values (Log2FC, DMSO substract) ([1]; 20 nM, 180 min, replicates A-C): 0.1385 and 0.1351 and 0.05551 | Log2 reporter intensity values (Log2FC, DMSO substract) ([1]; 200 nM, 10 min, replicates B,C): 0.1048 | Log2 reporter intensity values (Log2FC, DMSO substract) ([1]; 200 nM, 60 min, replicates A-C): 0.05455 and 0.04834 and 0.1109 | Log2 reporter intensity values (Log2FC, DMSO substract) [1, 7]: -0.08272 and -0.01544 | Log2 reporter intensity values (Log2FC, DMSO substract) ([2]; 2 nM, 60 min, replicates A-C, listed as ABP 2): 0.1489 and -0.6669 | Log2 reporter intensity values (Log2FC, DMSO substract) ([2]; 20 nM, 10 min, replicates B,C): 0.2437 | Log2 reporter intensity values (Log2FC, DMSO substract) ([2]; 20 nM, 60 min, replicates A-C, listed as ABP 2): 0.1765 and 0.5295 | Log2 reporter intensity values (Log2FC, DMSO substract) ([2]; 20 nM, 180 min, replicates A-C, listed as ABP 2): 0.1037 and 0.2866 | Log2 reporter intensity values (Log2FC, DMSO substract) ([2]; 200 nM, 10 min, replicates B,C): 0.594 | Log2 reporter intensity values (Log2FC, DMSO substract) ([2]; 200 nM, 60 min, replicates A-C, listed as ABP 2): 0.3986 and 0.5245 | Log2 reporter intensity values (Log2FC, DMSO substract) [2, 7]: 0.3314 | Log2 reporter intensity values (Log2FC, DMSO substract) ([3]; 2 nM, 60 min, replicates A-C): 0.06074 and 0.05768 and -0.1222 | Log2 reporter intensity values (Log2FC, DMSO substract) ([3]; 20 nM, 10 min, replicates B,C): 0.0266 and 0.08583 | Log2 reporter intensity values (Log2FC, DMSO substract) ([3]; 20 nM, 60 min, replicates A-C): -0.07107 and -0.1083 and 0.02034 | Log2 reporter intensity values (Log2FC, DMSO substract) ([3]; 20 nM, 180 min, replicates A-C): -0.3167 and 0.0151 and 0.03374 | Log2 reporter intensity values (Log2FC, DMSO substract) ([3]; 200 nM, 10 min, replicates B,C): 0.03305 and -0.1026 | Log2 reporter intensity values (Log2FC, DMSO substract) ([3]; 200 nM, 60 min, replicates A-C): 0.09885 and 0.2045 and -0.1344 | Log2 reporter intensity values (Log2FC, DMSO substract) [3, 7]: 0.109 and 0.1534 | Log2 reporter intensity values (Log2FC, DMSO substract) ([4]; 2 nM, 60 min, replicates A-C): 0.06357 and 0.017 and -0.3747 | Log2 reporter intensity values (Log2FC, DMSO substract) ([4]; 20 nM, 10 min, replicates B,C): -0.07969 and -0.2354 | Log2 reporter intensity values (Log2FC, DMSO substract) ([4]; 20 nM, 60 min, replicates A-C): 0.02327 and -0.09058 and -0.2812 | Log2 reporter intensity values (Log2FC, DMSO substract) ([4]; 20 nM, 180 min, replicates A-C): -0.1814 and -0.1595 and -0.1999 | Log2 reporter intensity values (Log2FC, DMSO substract) ([4]; 200 nM, 10 min, replicates B,C): 0.1137 | Log2 reporter intensity values (Log2FC, DMSO substract) ([4]; 200 nM, 60 min, replicates A-C): -0.04347 and 0.1524 and 0.1409 | Log2 reporter intensity values (Log2FC, DMSO substract) [4, 7]: -0.01106 and 0.3029 | Log2 reporter intensity values (Log2FC, DMSO substract) ([5]; 2 nM, 60 min, replicates A-C): 0.1769 and 0.1167 and 0.05908 | Log2 reporter intensity values (Log2FC, DMSO substract) ([5]; 20 nM, 10 min, replicates B,C): 0.07104 | Log2 reporter intensity values (Log2FC, DMSO substract) ([5]; 20 nM, 60 min, replicates A-C): 0.004019 | Log2 reporter intensity values (Log2FC, DMSO substract) ([5]; 20 nM, 180 min, replicates A-C): -0.1034 and 0.07381 and 0.1015 | Log2 reporter intensity values (Log2FC, DMSO substract) ([5]; 200 nM, 10 min, replicates B,C): 0.1233 and 0.1033 | Log2 reporter intensity values (Log2FC, DMSO substract) ([5]; 200 nM, 60 min, replicates A-C): 0.176 and 0.4057 and 0.2275 | Log2 reporter intensity values (Log2FC, DMSO substract) [5, 7]: 0.3761 and 0.4198 | Log2 reporter intensity values (Log2FC, DMSO substract) ([6]; 2 nM, 60 min, replicates A-C): 0.1138 and 0.004511 and -0.04471 | Log2 reporter intensity values (Log2FC, DMSO substract) ([6]; 20 nM, 10 min, replicates B,C): 0.2038 and 0.1797 | Log2 reporter intensity values (Log2FC, DMSO substract) ([6]; 20 nM, 60 min, replicates A-C): 0.04003 and 0.2301 and -0.05461 | Log2 reporter intensity values (Log2FC, DMSO substract) ([6]; 20 nM, 180 min, replicates A-C): -0.06212 and 0.248 and 0.23 | Log2 reporter intensity values (Log2FC, DMSO substract) ([6]; 200 nM, 10 min, replicates B,C): -0.05955 and -0.05362 | Log2 reporter intensity values (Log2FC, DMSO substract) ([6]; 200 nM, 60 min, replicates A-C): 0.07483 and 0.06943 and 0.1943 | Log2 reporter intensity values (Log2FC, DMSO substract) [6, 7]: 0.004999 and 0.2331
